Test [1] concerns A2780. Nature of the test: Antiproliferative activity against human A2780 cells in lipid reduced medium in presence of palmitate. In kind it is functional, cell-based.
In test [2] the test system is A2780. Put plainly: Antiproliferative activity against human A2780 cells in lipid reduced medium in absence of palmitate. In kind it is functional, cell-based.
The target of test [3] is Fatty acid synthase (Homo sapiens, UniProt P49327). Nature of the test: Inhibition of fatty acid synthase keto-reductase domain (unknown origin).
Chain of Fatty acid synthase (P49327 whole entry, the tested form may be a part): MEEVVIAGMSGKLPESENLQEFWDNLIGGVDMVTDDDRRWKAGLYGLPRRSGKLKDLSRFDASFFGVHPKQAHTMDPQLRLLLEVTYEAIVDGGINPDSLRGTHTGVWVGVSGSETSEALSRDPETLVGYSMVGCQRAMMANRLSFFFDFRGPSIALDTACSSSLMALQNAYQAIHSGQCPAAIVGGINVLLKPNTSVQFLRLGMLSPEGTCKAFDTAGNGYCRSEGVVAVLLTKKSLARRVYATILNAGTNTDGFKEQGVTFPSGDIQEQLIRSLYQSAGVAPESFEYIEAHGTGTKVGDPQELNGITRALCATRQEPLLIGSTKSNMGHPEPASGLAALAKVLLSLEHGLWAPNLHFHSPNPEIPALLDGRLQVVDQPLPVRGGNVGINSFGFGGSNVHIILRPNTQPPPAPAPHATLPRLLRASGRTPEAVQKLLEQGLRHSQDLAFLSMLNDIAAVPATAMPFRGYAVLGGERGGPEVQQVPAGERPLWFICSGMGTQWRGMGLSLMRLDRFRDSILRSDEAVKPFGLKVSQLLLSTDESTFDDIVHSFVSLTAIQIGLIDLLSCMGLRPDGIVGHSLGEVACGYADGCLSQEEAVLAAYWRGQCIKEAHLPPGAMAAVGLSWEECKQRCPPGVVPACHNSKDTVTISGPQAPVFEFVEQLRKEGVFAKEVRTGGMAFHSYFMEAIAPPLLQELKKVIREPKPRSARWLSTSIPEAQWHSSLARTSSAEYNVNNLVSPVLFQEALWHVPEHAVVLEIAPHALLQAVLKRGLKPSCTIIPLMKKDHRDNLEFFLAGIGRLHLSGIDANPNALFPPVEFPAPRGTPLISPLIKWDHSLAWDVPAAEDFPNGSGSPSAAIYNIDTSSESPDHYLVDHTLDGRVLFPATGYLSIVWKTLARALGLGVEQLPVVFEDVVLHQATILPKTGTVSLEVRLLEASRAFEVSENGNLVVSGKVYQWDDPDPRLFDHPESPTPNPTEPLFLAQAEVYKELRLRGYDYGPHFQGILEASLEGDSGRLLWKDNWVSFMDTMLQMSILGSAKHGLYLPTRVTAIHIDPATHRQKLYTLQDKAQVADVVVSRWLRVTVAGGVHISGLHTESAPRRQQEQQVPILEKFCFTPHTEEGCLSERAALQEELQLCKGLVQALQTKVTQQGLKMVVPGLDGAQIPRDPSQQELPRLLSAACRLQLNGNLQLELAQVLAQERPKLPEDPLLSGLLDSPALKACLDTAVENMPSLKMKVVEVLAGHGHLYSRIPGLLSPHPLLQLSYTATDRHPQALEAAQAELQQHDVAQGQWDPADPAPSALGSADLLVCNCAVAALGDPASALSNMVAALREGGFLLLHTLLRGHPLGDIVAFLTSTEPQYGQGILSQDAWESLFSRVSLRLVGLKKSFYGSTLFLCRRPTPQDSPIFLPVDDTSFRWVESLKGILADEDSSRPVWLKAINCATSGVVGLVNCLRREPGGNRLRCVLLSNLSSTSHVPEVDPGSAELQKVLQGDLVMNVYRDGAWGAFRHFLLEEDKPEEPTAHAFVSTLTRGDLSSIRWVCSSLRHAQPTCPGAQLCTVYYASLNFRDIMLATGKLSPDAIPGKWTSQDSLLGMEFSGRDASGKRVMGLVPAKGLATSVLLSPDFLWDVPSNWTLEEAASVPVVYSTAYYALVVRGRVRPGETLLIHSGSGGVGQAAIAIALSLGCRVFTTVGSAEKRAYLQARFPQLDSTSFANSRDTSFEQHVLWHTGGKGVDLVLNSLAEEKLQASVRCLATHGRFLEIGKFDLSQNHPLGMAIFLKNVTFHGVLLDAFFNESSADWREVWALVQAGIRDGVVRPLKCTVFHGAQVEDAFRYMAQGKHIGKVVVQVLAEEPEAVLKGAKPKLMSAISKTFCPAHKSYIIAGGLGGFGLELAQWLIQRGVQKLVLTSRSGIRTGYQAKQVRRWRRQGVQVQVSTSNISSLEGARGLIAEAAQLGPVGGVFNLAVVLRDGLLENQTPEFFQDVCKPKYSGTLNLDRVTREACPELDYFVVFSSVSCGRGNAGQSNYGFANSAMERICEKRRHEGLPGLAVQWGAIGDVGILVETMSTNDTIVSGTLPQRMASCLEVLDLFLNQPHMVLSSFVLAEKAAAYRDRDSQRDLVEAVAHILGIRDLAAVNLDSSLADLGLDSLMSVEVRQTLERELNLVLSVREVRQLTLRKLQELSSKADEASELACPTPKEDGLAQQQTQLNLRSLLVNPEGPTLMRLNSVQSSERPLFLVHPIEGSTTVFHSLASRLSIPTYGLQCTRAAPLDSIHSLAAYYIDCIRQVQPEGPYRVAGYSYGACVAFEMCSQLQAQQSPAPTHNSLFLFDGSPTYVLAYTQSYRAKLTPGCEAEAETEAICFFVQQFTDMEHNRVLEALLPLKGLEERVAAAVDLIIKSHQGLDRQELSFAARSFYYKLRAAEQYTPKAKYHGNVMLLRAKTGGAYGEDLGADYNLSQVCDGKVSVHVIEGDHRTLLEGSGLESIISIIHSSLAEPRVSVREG
In test [4] the test system is LNCaP. Nature of the test: Antiproliferative activity against human LNCAP cells in lipid reduced medium. The class given is functional, cell-based.
Test [5] relates to PC-3M. Put plainly: Antiproliferative activity against human PC3M cells expressing Luc-C6 in lipid reduced medium. The class given is functional, cell-based.

Where only a bound is given, the exact number is not on record here.

Broadly, the IC50 is the concentration at which inhibition is half-maximal. In the case of `CC1(C)N=C(c2ccc(-c3nc4ccccc4[nH]3)cc2)N(C[C@@H]2CCN(C(=O)C3CC3)C2)C1=O`, the IC50 in test [1] was greater than 10000 nM; in test [2], 9330 nM.

Take `CC1(C)N=C(c2ccc(-c3ccc4cccnc4c3)cc2)N(C[C@@H]2CCN(C(=O)C3CC3)C2)C1=O`: the half-maximal inhibitory concentration (IC50) in test [3] is 56.2 nM; in test [1] it was greater than 10000 nM; in test [2] it was 75.9 nM; in test [4], 219 nM; in test [5], 53.7 nM.

With `Cn1ncc2cc(-c3ccc(C4=NC(C)(C)C(=O)N4C[C@@H]4CCN(C(=O)C5CC5)C4)c(F)c3)ccc21`, the IC50 is 724 nM in test [4] and 132 nM in test [5].

`CC1(C)N=C(c2ccc(-c3ccc4cccc(F)c4c3)cc2)N(CC2CN(C(=O)C3CC3)C2)C1=O`: the values for the IC50 in test [1], in test [2] and in test [4] were 5620 nM, 468 nM and 2040 nM, respectively.

As to `Cn1cc(-c2ccc(-c3ccc(C4=NC(C)(C)C(=O)N4C[C@@H]4CCN(C(=O)C5(O)CC5)C4)c(F)c3)cc2)cn1`, the IC50 in test [1] was greater than 10000 nM; in test [2], 5.37 nM.

In the case of `CC1(C)N=C(c2ccc(-c3ccc4[nH]ccc4c3)cc2)N(C[C@@H]2CCN(C(=O)C3CC3)C2)C1=O`, the IC50 is greater than 10000 nM in test [1] and 74.1 nM in test [2].
